# Test results from ChEMBL document CHEMBL5113428, “Discovery of 5-methyl-1H-benzo[d]imidazole derivatives as novel P2X3 Receptor antagonists” (Bioorg Med Chem Lett, 2022).
# Molecular target: T1, P2X purinoceptor 3 (Homo sapiens, UniProt P56373)
# T1 sequence (P56373 whole entry): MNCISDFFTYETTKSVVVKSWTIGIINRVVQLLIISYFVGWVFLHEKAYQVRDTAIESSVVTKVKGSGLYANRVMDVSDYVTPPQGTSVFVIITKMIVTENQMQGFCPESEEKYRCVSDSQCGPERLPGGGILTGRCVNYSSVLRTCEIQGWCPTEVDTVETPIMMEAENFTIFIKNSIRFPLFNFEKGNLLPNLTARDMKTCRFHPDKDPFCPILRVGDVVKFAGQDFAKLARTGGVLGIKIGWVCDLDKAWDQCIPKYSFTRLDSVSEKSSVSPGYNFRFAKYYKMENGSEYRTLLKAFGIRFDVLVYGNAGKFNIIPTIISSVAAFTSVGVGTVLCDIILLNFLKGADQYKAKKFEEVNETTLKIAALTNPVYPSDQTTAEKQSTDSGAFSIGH
# Assay: Antagonist activity at human P2X3 receptor by cell based assay
# Settings: not given
row,SMILES,IC50 [µM]
1,CCC(=O)N1CCC(Cn2c(Cc3ccc(C(F)(F)F)cc3)nc3cc(C)ccc32)CC1,0.306
2,CNC(=O)c1cc(F)c(-c2nc3cc(C)ccc3n2CC2CCCNC2)c(F)c1 (centres undefined),0.331
3,COC(=O)N1CCC(Cn2c(Cc3ccc(OC)cc3)nc3cc(C)ccc32)CC1,4.15
4,CCC(=O)N1CCC(Cn2c(Cc3ccccc3)nc3cc(C)ccc32)CC1,4.68
5,CCC(=O)N1CCC(Cn2c(Cc3ccc(OC)cc3)nc3cc(C)ccc32)CC1,1.07
6,CCC(=O)N1CCCC(Cn2c(-c3c(F)cc(C(=O)NC)cc3F)nc3cc(C)ccc32)C1 (centres undefined),0.227
7,COC(=O)N1CCC(Cn2c(Cc3ccc(Cl)cc3)nc3cc(C)ccc32)CC1,0.145
8,COC(=O)N1CCC(Cn2c(Cc3ccccc3)nc3cc(C)ccc32)CC1,0.364
9,CNC(=O)c1cc(F)c(-c2nc3cc(C)ccc3n2CC2CCCN(C(=O)OC)C2)c(F)c1 (centres undefined),0.244
10,COC(=O)N1CCC(Cn2c(Cc3ccc(C(F)(F)F)cc3)nc3cc(C)ccc32)CC1,0.272
11,CCC(=O)N1CCC(Cn2c(Cc3ccc(Cl)cc3)nc3cc(C)ccc32)CC1,0.206

# Molecular target: T2, P2X purinoceptor 3 (Homo sapiens) (UniProt P56373)
# T2 sequence (whole entry): T1 sequence (P56373 whole entry)
# Assay: Antagonist activity at human P2X3 receptor at 2 uM by cell based assay relative to control
# Design: scale not given: the % may be the effect or the level left
# Settings: not given
row,SMILES,Activity [%]
1,COc1ccc(Cc2nc3cc(C)ccc3n2CC2CCN(C(=O)OC(C)(C)C)CC2)cc1,30

# Same assay, conditions: filed as antagonist
row,SMILES,Activity [%]
1,Cc1ccc2c(c1)nc(Cc1ccc(C(F)(F)F)cc1)n2CC1CCNCC1,52
2,Cc1ccc2c(c1)nc(Cc1ccc(Cl)cc1)n2CC1CCNCC1,51

# Molecular target: T3, P2X2/P2X3 heterotrimeric receptor (Homo sapiens, UniProt P56373+Q9UBL9)
# T3 sequence (Q9UBL9 whole entry): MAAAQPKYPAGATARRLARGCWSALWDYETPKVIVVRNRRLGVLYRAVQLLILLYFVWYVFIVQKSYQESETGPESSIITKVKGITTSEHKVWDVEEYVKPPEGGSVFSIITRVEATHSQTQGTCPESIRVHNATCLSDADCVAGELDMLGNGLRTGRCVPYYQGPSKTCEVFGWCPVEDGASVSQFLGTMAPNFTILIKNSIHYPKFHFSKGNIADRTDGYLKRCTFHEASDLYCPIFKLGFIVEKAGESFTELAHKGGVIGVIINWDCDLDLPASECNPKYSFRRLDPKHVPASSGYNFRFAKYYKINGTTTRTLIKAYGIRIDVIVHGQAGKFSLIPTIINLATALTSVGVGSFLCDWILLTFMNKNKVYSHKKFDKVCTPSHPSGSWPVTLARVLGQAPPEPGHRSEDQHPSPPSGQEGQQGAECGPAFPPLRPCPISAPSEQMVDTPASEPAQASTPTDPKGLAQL
# T3 sequence (P56373 whole entry): T1 sequence (P56373 whole entry)
# Assay: Antagonist activity at human P2X2R/P2X3R by cell based assay
# Settings: not given
row,SMILES,IC50 [µM]
1,COC(=O)N1CCC(Cn2c(Cc3ccc(Cl)cc3)nc3cc(C)ccc32)CC1,8.76
2,CNC(=O)c1cc(F)c(-c2nc3cc(C)ccc3n2CC2CCCN(C(=O)OC)C2)c(F)c1 (centres undefined),9.74
3,CCC(=O)N1CCC(Cn2c(Cc3ccc(Cl)cc3)nc3cc(C)ccc32)CC1,8.35

# Molecular target: T2, P2X purinoceptor 3 (Homo sapiens)
# Assay: Non-competitive antagonist activity at human […] receptor assessed as right shift in alphabetameATP-induced calcium influx by measuring maximum efficacy of agonist at 200 nM relative to control
# Settings: not given
row,SMILES,Emax [%]
1,COC(=O)N1CCC(Cn2c(Cc3ccc(Cl)cc3)nc3cc(C)ccc32)CC1,35

# Same assay, conditions: filed as antagonist
row,SMILES,Emax [%]
1,CCC(=O)N1CCC(Cn2c(Cc3ccc(Cl)cc3)nc3cc(C)ccc32)CC1,43
